≈ marks a conversion by molar mass, not a printed value.
Columns and labels:
Assay type in all cases: functional
Escherichia coli [1] = assay: Tested in vitro for antibacterial activity against Escherichia coli (KC-14)
Escherichia coli [2] = assay: Tested for inhibitory activity against DNA gyrase supercoiling in Escherichia coli (KL-16)
Escherichia coli [3] = assay: Tested in vitro for antibacterial activity agains Escherichia coli (NIHJ JC-2)
Enterococcus faecalis = assay: Tested in vitro for antibacterial activity agains Enterococcus faecalis (IID 682)
Pseudomonas aeruginosa [4] = assay: Tested in vitro for antibacterial activity against Pseudomonas aeruginosa (E-2)
Pseudomonas aeruginosa [5] = assay: Tested in vitro for antibacterial activity against Pseudomonas aeruginosa (IFO 3445)
[6] = test system: Staphylococcus epidermidis; assay: Tested in vitro for antibacterial activity against Staphylococcus epidermidis (IAM 1296)
Staphylococcus aureus [7] = assay: Tested in vitro for antibacterial activity against Staphylococcus aureus (FDA 209P JC-1)
Staphylococcus aureus [8] = assay: Tested in vitro for antibacterial activity against Staphylococcus aureus (IID 803)
Klebsiella pneumoniae = assay: Tested in vitro for antibacterial activity against Klebsiella pneumoniae (B54)

| SMILES | MIC (Escherichia coli [1]) | IC50 (Escherichia coli [2]) | MIC (Escherichia coli [3]) | MIC (Enterococcus faecalis) | MIC (Pseudomonas aeruginosa [4]) | MIC (Pseudomonas aeruginosa [5]) | MIC [6] | MIC (Staphylococcus aureus [7]) | MIC (Staphylococcus aureus [8]) | MIC (Klebsiella pneumoniae) |
| --- | --- | --- | --- | --- | --- | --- | --- | --- | --- | --- |
| CN1CCN(c2c(F)cc3c(=O)c(C(=O)O)c4n5c3c2C(=O)CC5CS4)CC1.Cl (stereo unspecified) | 0.39 µg/mL | 0.67 µg/mL | 0.78 µg/mL | 3.13 µg/mL | 3.13 µg/mL | 6.25 µg/mL | 3.13 µg/mL | 0.78 µg/mL | 0.78 µg/mL | 0.78 µg/mL |
| CN1CCN(c2c(F)cc3c(=O)c(C(=O)O)c4n5c3c2OCC5CS4)CC1.Cl (stereo unspecified) | 0.025 µg/mL | 0.33 µg/mL | 0.05 µg/mL | 0.78 µg/mL | 1.56 µg/mL | 1.56 µg/mL | 0.2 µg/mL | 0.1 µg/mL | 0.1 µg/mL | 0.05 µg/mL |
| CN1CCN(c2c(F)cc3c(=O)c(C(=O)O)c4n5c3c2SCC5CO4)CC1.Cl (stereo unspecified) | 1.56 µg/mL | 2.61 µg/mL | 1.56 µg/mL | 6.25 µg/mL | 60 µg/mL | 50 µg/mL | 6.25 µg/mL | 1.56 µg/mL | 3.13 µg/mL | 1.56 µg/mL |
| CN1CCN(c2c(F)cc3c(=O)c(C(=O)O)c4n5c3c2N(C)CC5CS4)CC1.Cl (stereo unspecified) | 0.78 µg/mL | 0.53 µg/mL | 0.78 µg/mL | 1.56 µg/mL | 6.25 µg/mL | 6.25 µg/mL | 0.78 µg/mL | 0.78 µg/mL | 0.39 µg/mL | 0.39 µg/mL |
| CC1COc2c(N3CCN(C)CC3)c(F)cc3c(=O)c(C(=O)O)cn1c23 (stereo unspecified) [OFLOXACIN] |  | 0.53 µg/mL (≈ 1.47 µM) |  |  |  |  |  |  |  |  |

Reference: ChEMBL document CHEMBL1126942, “Synthesis and antibacterial activity of a new series of tetracyclic pyridone carboxylic acids” (J Med Chem, 1993)
